Drawing on patent US7135475B2, “Amide substituted xanthine derivatives” (Hoffmann-La Roche Inc., priority 2002, dated 2006), this text covers IC50 for eleven compounds.

This experiment has as its target T1, recombinant human cytosolic PEPCK (Homo sapiens, UniProt P35558).
T1 sequence (P35558 1-622): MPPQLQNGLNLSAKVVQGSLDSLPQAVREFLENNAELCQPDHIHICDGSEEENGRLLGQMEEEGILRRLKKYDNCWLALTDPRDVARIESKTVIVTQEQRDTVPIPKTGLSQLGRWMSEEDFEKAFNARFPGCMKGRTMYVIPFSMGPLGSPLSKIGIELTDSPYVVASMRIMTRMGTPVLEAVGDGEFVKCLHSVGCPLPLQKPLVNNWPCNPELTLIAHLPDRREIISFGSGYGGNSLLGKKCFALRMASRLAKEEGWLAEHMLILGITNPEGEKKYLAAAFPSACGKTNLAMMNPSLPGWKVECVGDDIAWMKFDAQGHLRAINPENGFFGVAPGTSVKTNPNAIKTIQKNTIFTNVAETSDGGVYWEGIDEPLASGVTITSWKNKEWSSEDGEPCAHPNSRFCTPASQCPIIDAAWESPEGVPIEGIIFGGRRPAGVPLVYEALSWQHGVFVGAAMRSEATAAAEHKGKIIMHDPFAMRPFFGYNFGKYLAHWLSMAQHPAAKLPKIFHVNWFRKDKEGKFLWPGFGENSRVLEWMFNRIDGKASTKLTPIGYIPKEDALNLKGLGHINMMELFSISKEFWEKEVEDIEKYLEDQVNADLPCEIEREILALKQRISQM
In words: PEPCK enzyme assay (coupled pyruvate kinase/lactate dehydrogenase, absorbance at 340). Particulars: recombinant human cytosolic GST-PEPCK; GTP and OAA at 3 fold and 10 fold Km; final DMSO 10%; room temperature, twenty minutes; read-out: In vitro IC50. Type of experiment: biochemical. As to the method: E. coli cells expressing GST-PEPCK were suspended in 5 volumes of lysis buffer (50 mM Tris-hydroxymethyl aminomethyl (TRIS), 150 mM sodium chloride (NaCl), 10 mM ethylene-diametetraacetic acid (EDTA), 5 mM dithiothreitol(DTT), 1% Nonidet P-40, pH 7.4) in the presence of protease inhibitors, incubated with lysozyme at 200 micrograms/ml for 30 min. at room temperature, and sonicated 4×30 seconds at 4 degrees C. After centrifugation at 12,000×g for 20 min. to remove insoluble material, the supernatant was loaded onto glutathione Sepharose (Pharmacia), washed with lysis buffer followed by washing with lysis buffer in the absence of NP-40. GST-PEPCK was eluted with the same buffer containing 20 mM glutathione. The eluted protein was concentrated and dialyzed against 25 mM Hepes(N-[2-hydroxyethyl]piperazine-N′[2-ethanesulfonic acid), 150 mM NaCl, 2.5 mM EDTA, 5 mM DTT, 30% glycerol, pH 7.4, and stored at −20 ° C.
The inhibitory effect of the compounds of the present invention on PEPCK enzymatic activity was determined using recombinant human cytosolic PEPCK, expressed and purified from E.coli as a GST-fusion. Guanosine triphosphate (GTP) and manganese dependent PEPCK enzyme activity catalyzed the decarboxylation of oxalacetate leading to the formation of guanosine diphosphate (GDP) and phosphoenol pyruvate (PEP). This reaction is coupled to pyruvate kinase and lactate dehydrogenase catalyzed reactions and the overall reaction rate determined by measuring the change in absorbance at 340 nm (Chang, H. C. and Lane M. D., J. Biol.Chem. 241:2413–2420, 1966). The following modifications were made to the protocol: 2.5 μg of recombinant, human cytosolic glutathione-S-transferase (GST)-PEPCK was added to a reaction mixture at room temperature which contained 0.3 mM GTP, 0.3 mM oxaloacetate (OAA), 3 mM magnesium chloride (MgCl2), 0.075 mM manganese chloride (MnCl2), 30 mM potassium phosphates (KPO4), pH 7.6, 1 mM dithiothreitol (DTT), 0.2 mM adenosine diphosphate (ADP), 1 mM nicotinamide adenine dinucleotide, reduced form (NADH), 0.9 Units/ml each of pyruvate kinase and lactate dehydrogenase and 1 mg/ml bovine serum albumin (BSA). Test compounds were added such that final concentration of DMSO was 10%. Reactions were run for twenty minutes.
Km values for GTP and OAA were determined according to Michelis-Menton conditions as described in Cornish-Bowden (Fundamentals of Enzyme Kinetics, 1995) in essentially the coupled assay conditions described above. […] Test compounds were added to reactions over a range of concentrations and IC50's were calculated from plots of inhibitor concentration versus enzyme rate. This method of determination of IC50 values is equally applicable to calculations based on PEPCK cellular assay.
The in vitro biological activity of several representative preferred compounds of the present invention in the foregoing PEPCK enzymatic assay is presented in Table 1.

As to `CC(=O)Nc1ccc(Cc2nc3c([nH]2)c(=O)n(Cc2ccccc2F)c(=O)n3C[C@@H]2C[C@@H]2C(=O)O)cc1` (relative stereo) [Example 47, 2-[8-(4-Acetylamino-benzyl)-1-(2-fluorobenzyl)-2,6-dioxo-1,2,6,7-tetrahydro-purin-3-ylmethyl]-cyclopropanecarboxylic acid], the IC50 was found to be 560 nM.

With `CC(=O)Nc1ccc(Cc2nc3c([nH]2)c(=O)n(Cc2ccccc2F)c(=O)n3CC2CC2)cc1` [Example 42, N-{4-[3-Cyclopropylmethyl-1-(2-fluorobenzyl)-2,6-dioxo-2,3,6,7-tetrahydro-1H-purin-8-ylmethyl]-phenyl}-acetamide], the IC50 is 930 nM.

As to `CC(=O)Nc1cccc(C(=O)N(C)c2ccc(Cc3nc4c([nH]3)c(=O)n(Cc3ccccc3F)c(=O)n4CC3CC3)cc2)n1` [Example 79, 6-Acetylamino-pyridine-2-carboxylic acid {4-[3-cyclopropylmethyl-1-(2-fluorobenzyl)-2,6-dioxo-2,3,6,7-tetrahydro-1H-purin-8-ylmethyl]-phenyl}-methyl-amide], the IC50 stood at 560 nM.

`Cc1cncc(C(=O)N(C)c2ccc(Cc3nc4c([nH]3)c(=O)n(Cc3ccccc3F)c(=O)n4CC3CC3)cc2)c1` [Example 85, N-{4-[3-cyclopropylmethyl-1-(2-fluorobenzyl)-2,6-dioxo-2,3,6,7-tetrahydro-1H-purin-8-ylmethyl]-phenyl}-5,N-dimethyl-nicotinamide]: the IC50 came to 400 nM.

For `Cc1ccc(C(=O)N(C)c2ccc(Cc3nc4c([nH]3)c(=O)n(Cc3ccccc3F)c(=O)n4CC3CC3)cc2)cn1` [Example 86, N-{4-[3-cyclopropylmethyl-1-(2-fluorobenzyl)-2,6-dioxo-2,3,6,7-tetrahydro-1H-purin-8-ylmethyl]-phenyl}-6,N-dimethyl-nicotinamide], the IC50 is 420 nM.

`Cc1ccc(C(=O)N(C)c2ccc(Cc3nc4c([nH]3)c(=O)n(Cc3ccccc3F)c(=O)n4CC3CCC3)cc2)cn1` [Example 88, N-{4-[3-Cyclobutylmethyl-1-(2-fluorobenzyl)-2,6-dioxo-2,3,6,7-tetrahydro-1H-purin-8-ylmethyl]-phenyl}-6,N-dimethyl-nicotinamide]: the IC50 stood at 340 nM.

As for `COc1ccc(C(=O)N(C)c2ccc(Cc3nc4c([nH]3)c(=O)n(Cc3ccccc3F)c(=O)n4CC3CC3)cc2)c(OC)n1` [Example 90, N-{4-[3-cyclopropylmethyl-1-(2-fluorobenzyl)-2,6-dioxo-2,3,6,7-tetrahydro-1H-purin-8-ylmethyl]-phenyl}-2,6-dimethoxy-N-methyl-nicotinamide], the IC50 amounted to 340 nM.

As to `CN(C(=O)Cc1cccnc1)c1ccc(Cc2nc3c([nH]2)c(=O)n(Cc2ccccc2F)c(=O)n3CC2CC2)cc1` [Example 91, N-{4-[3-cyclopropylmethyl-1-(2-fluorobenzyl)-2,6-dioxo-2,3,6,7-tetrahydro-1H-purin-8-ylmethyl]-phenyl}-N-methyl-2-pyridin-3-yl-acetamide], the IC50 stood at 410 nM.

With `CN(C(=O)c1ccc(C#N)nc1)c1ccc(Cc2nc3c([nH]2)c(=O)n(Cc2ccccc2F)c(=O)n3CC2CC2)cc1` [Example 92, 6-Cyano-N-{4-[3-cyclopropylmethyl-1-(2-fluorobenzyl)-2,6-dioxo-2,3,6,7-tetrahydro-1H-purin-8-ylmethyl]-phenyl}-N-methyl-nicotinamide], the IC50 is 440 nM.

For `CN(C(=O)c1cccnc1N)c1ccc(Cc2nc3c([nH]2)c(=O)n(Cc2ccccc2F)c(=O)n3CC2CC2)cc1` [Example 93, 2-Amino-N-{4-[3-cyclopropylmethyl-1-(2-fluorobenzyl)-2,6-dioxo-2,3,6,7-tetrahydro-1H-purin-8-ylmethyl]-phenyl}-N-methyl-nicotinamide], the IC50 is 280 nM.

`CN(C(=O)c1ccc(N)nc1)c1ccc(Cc2nc3c([nH]2)c(=O)n(Cc2ccccc2F)c(=O)n3CC2CC2)cc1` [Example 94, 6-Amino-N-{4-[3-cyclopropylmethyl-1-(2-fluorobenzyl)-2,6-dioxo-2,3,6,7-tetrahydro-1H-purin-8-ylmethyl]-phenyl}-N-methyl-nicotinamide]: the IC50 is 340 nM.
